Laboratory results taken from US11104674B2 (Hoffmann-La Roche Inc., priority 2016, dated 2021).

System: HBsAg
Assay: HBsAg assay (chemiluminescence immunoassay of secreted HBsAg)
Assay type: cell-based, HBV
Conditions: Hepatitis B virus, HepG2.2.15, HBsAg secretion, HepG2.2.15 cells, CLIA of culture supernatant
Protocol: HepG2.2.15 cells (Acs et al. Proc Natl Acad Sci USA, 84, (1987), 4641-4), a constitutively HBV-expressing cell line were cultured in DMEM+Glutamax-I medium (Invitrogen, Carlsbad, Calif., USA), supplemented with 10% fetal bovine serum (Invitrogen) and G418 (Invitrogen) at a final concentration of 200 mg/L and maintained in 5% CO2 at 37° C.
HepG2.2.15 cells were seeded in duplicate into white, 96-well plates at 1.5×10^4 cells/well. The cells were treated with a three-fold serial dilution series of the compounds in DMSO. The final DMSO concentration in all wells was 1% and DMSO was used as no drug control.
The HBsAg chemiluminescence immunoassay (CLIA) kit (Autobio Diagnostics Co., Zhengzhou, China, Catalog number: CL0310-2) was used to measure the levels of secreted HBV antigens semi-quantitatively. For the detection 50 μL/well culture supernatant was used and HBsAg was quantified using HBsAg chemiluminescence immunoassay (CLIA) kit (Autobio Diagnostics Co., Zhengzhou, China, Catalog number: CL0310-2), 50 μL of the supernatant was transferred to the CLIA assay plate and 50 μL of enzyme conjugate reagent was added into each well. The plates were sealed and gently agitated for 1 hour at room temperature. The supernatant-enzyme-mixture was discarded and wells were washed 6 times with 300 μL of PBS.
The residual liquid was removed by plating the CLIA plate right side down on absorbent tissue paper. 25 μL of substrates A and B were added to each well. Luminance was measured using a luminometer (Mithras LB 940 Multimode Microplate Reader) after 10 minutes incubation. Dose-response curves were generated and the IC50 value was extrapolated by using the E-WorkBook Suite (ID Business Solutions Ltd., Guildford, UK). The IC50 was defined as the compound concentration (or conditioned media log dilution) at which HBsAg secretion was reduced by 50% compared to the no drug control.
The compounds according to formula I were tested for their capacity to inhibit HBsAg as described herein.

Row | SMILES | IC50
1 | CC1c2cnc(-c3ncccn3)nc2CCN1c1cc(N2CCCC2CO)cc(F)n1 (stereo not shown) [Example 30, [1-[2-fluoro-6-(5-methyl-2-pyrimidin-2-yl-7,8-dihydro-5H-pyrido[4,3-d]pyrimidin-6-yl)-4-pyridyl]pyrrolidin-2-yl]methanol] | 7 nM
2 | CC1c2cnc(-c3ncccn3)nc2CCN1c1cc(N2CC3(COC3)CC2=O)cc(F)n1 (stereo not shown) [Example 151, 7-[2-Fluoro-6-(5-methyl-2-pyrimidin-2-yl-7,8-dihydro-5H-pyrido[4,3-d]pyrimidin-6-yl)-4-pyridyl]-2-oxa-7-azaspiro[3.4]octan-6-one] | 27 nM
3 | CC(=O)N1CCN(c2cc(F)nc(N3CCc4nc(-c5ncccn5)ncc4C3C)c2)C(=O)C1 (stereo not shown) [Example 127, 4-Acetyl-1-[2-fluoro-6-(5-methyl-2-pyrimidin-2-yl-7,8-dihydro-5H-pyrido[4,3-d]pyrimidin-6-yl)-4-pyridyl]piperazin-2-one] | 494 nM
4 | CC1c2cnc(-c3ncccn3)nc2CCN1c1cc(F)cc(N2CCCC2CO)n1 (stereo not shown) [Example 31, [1-[4-fluoro-6-(5-methyl-2-pyrimidin-2-yl-7,8-dihydro-5H-pyrido[4,3-d]pyrimidin-6-yl)-2-pyridyl]pyrrolidin-2-yl]methanol] | 14 nM
5 | CC1c2cnc(-c3ncccn3)nc2CCN1c1cc(F)cc(N2CC(F)C2)n1 (stereo not shown) [Example 122, 6-[4-fluoro-6-(3-fluoroazetidin-1-yl)-2-pyridyl]-5-methyl-2-pyrimidin-2-yl-7,8-dihydro-5H-pyrido[4,3-d]pyrimidine] | 28 nM
6 | CC1c2cnc(-c3ncccn3)nc2CCN1c1cc(N2CC3(COC3)C2)cc(F)n1 (stereo not shown) [Example 130, 6-[2-fluoro-6-(5-methyl-2-pyrimidin-2-yl-7,8-dihydro-5H-pyrido[4,3-d]pyrimidin-6-yl)-4-pyridyl]-2-oxa-6-azaspiro[3.3]heptane] | 12 nM
7 | CC1c2cnc(-c3ncccn3)nc2CCN1c1cc(N2CC(C(=O)O)C2)cc(F)n1 (stereo not shown) [Example 54, 1-[2-fluoro-6-(5-methyl-2-pyrimidin-2-yl-7,8-dihydro-5H-pyrido[4,3-d]pyrimidin-6-yl)-4-pyridyl]azetidine-3-carboxylic acid] | 6340 nM
8 | CC1c2cnc(-c3ncccn3)nc2CCN1c1cc(F)cc(N2CC(C(=O)O)C(C)(C)C2)n1 (stereo not shown) [Example 92, 1-[4-fluoro-6-(5-methyl-2-pyrimidin-2-yl-7,8-dihydro-5H-pyrido[4,3-d]pyrimidin-6-yl)-2-pyridyl]-4,4-dimethyl-pyrrolidine-3-carboxylic acid] | 139 nM
9 | CC1c2cnc(-c3ccccn3)nc2CCN1c1cc(N2CCC(O)C2)cc(F)n1 (stereo not shown) [Example 60, 1-[2-fluoro-6-[5-methyl-2-(2-pyridyl)-7,8-dihydro-5H-pyrido[4,3-d]pyrimidin-6-yl]-4-pyridyl]pyrrolidin-3-ol] | 23 nM
10 | CC1c2cnc(-c3ncccn3)nc2CCN1c1cc(NCCCCC(N)=O)cc(F)n1 (stereo not shown) [Example 137, 5-[[2-Fluoro-6-(5-methyl-2-pyrimidin-2-yl-7,8-dihydro-5H-pyrido[4,3-d]pyrimidin-6-yl)-4-pyridyl]amino]pentanamide] | 120 nM
11 | CC1c2cnc(-c3ncccn3)nc2CCN1c1cc(N2CCC(C(=O)NS(C)(=O)=O)CC2)cc(F)n1 (stereo not shown) [Example 66, 1-[2-fluoro-6-(5-methyl-2-pyrimidin-2-yl-7,8-dihydro-5H-pyrido[4,3-d]pyrimidin-6-yl)-4-pyridyl]-N-methylsulfonyl-piperidine-4-carboxamide] | 1940 nM
12 | CC1c2cnc(-c3ncccn3)nc2CCN1c1cc(N2CCN(CC(N)=O)CC2)cc(F)n1 (stereo not shown) [Example 102, 2-[4-[2-fluoro-6-(5-methyl-2-pyrimidin-2-yl-7,8-dihydro-5H-pyrido[4,3-d]pyrimidin-6-yl)-4-pyridyl]piperazin-1-yl]acetamide] | 29 nM
13 | CC(=O)NC1CN(c2cc(F)cc(N3CCc4nc(-c5ncccn5)ncc4C3C)n2)C1 (stereo not shown) [Example 131, N-[1-[4-fluoro-6-(5-methyl-2-pyrimidin-2-yl-7,8-dihydro-5H-pyrido[4,3-d]pyrimidin-6-yl)-2-pyridyl]azetidin-3-yl]acetamide] | 43 nM
14 | CC1c2cnc(-c3ncccn3)nc2CCN1c1cc(N2CCN(S(C)(=O)=O)C(C)C2)cc(F)n1 (stereo not shown) [Example 106, 6-[6-fluoro-4-(3-methyl-4-methylsulfonyl-piperazin-1-yl)-2-pyridyl]-5-methyl-2-pyrimidin-2-yl-7,8-dihydro-5H-pyrido[4,3-d]pyrimidine] | 7 nM
15 | CC1c2cnc(-c3ncccn3)nc2CCN1c1cc(N2CC(F)(F)C2)cc(F)n1 (stereo not shown) [Example 126, 6-[4-(3,3-difluoroazetidin-1-yl)-6-fluoro-2-pyridyl]-5-methyl-2-pyrimidin-2-yl-7,8-dihydro-5H-pyrido[4,3-d]pyrimidine] | 12 nM
16 | CC1c2cnc(-c3ncccn3)nc2CCN1c1cc(N2CCOC(C(N)=O)C2)cc(F)n1 (stereo not shown) [Example 46, 4-[2-Fluoro-6-(5-methyl-2-pyrimidin-2-yl-7,8-dihydro-5H-pyrido[4,3-d]pyrimidin-6-yl)-4-pyridyl]morpholine-2-carboxamide] | 36 nM
17 | CC1c2cnc(-c3ncccn3)nc2CCN1c1cc(F)cc(NCCCCCC(=O)O)n1 (stereo not shown) [Example 2, 6-[[4-fluoro-6-(5-methyl-2-pyrimidin-2-yl-7,8-dihydro-5H-pyrido[4,3-d]pyrimidin-6-yl)-2-pyridyl]amino]hexanoic acid] | 155 nM
18 | CCS(=O)(=O)N1CCN(c2cc(F)cc(N3CCc4nc(-c5ncccn5)ncc4C3C)n2)CC1 (stereo not shown) [Example 91, 6-[6-(4-ethylsulfonylpiperazin-1-yl)-4-fluoro-2-pyridyl]-5-methyl-2-pyrimidin-2-yl-7,8-dihydro-5H-pyrido[4,3-d]pyrimidine] | 12 nM
19 | CC1c2cnc(-c3ncccn3)nc2CCN1c1cc(NC2CCS(=O)(=O)CC2)cc(F)n1 (stereo not shown) [Example 138, N-(1,1-dioxothian-4-yl)-2-fluoro-6-(5-methyl-2-pyrimidin-2-yl-7,8-dihydro-5H-pyrido[4,3-d]pyrimidin-6-yl)pyridin-4-amine] | 663 nM
20 | CC1c2cnc(-c3ncccn3)nc2CCN1c1cc(F)nc(N2CCN(S(C)(=O)=O)CC2)c1 (stereo not shown) [Example 107, 6-[2-Fluoro-6-(4-methylsulfonylpiperazin-1-yl)-4-pyridyl]-5-methyl-2-pyrimidin-2-yl-7,8-dihydro-5H-pyrido[4,3-d]pyrimidine] | 10 nM
21 | CC1c2cnc(-c3ncccn3)nc2CCN1c1cc(N2CCC(F)(F)C2)cc(F)n1 (stereo not shown) [Example 22, 6-[4-(3,3-difluoropyrrolidin-1-yl)-6-fluoro-2-pyridyl]-5-methyl-2-pyrimidin-2-yl-7,8-dihydro-5H-pyrido[4,3-d]pyrimidine] | 4 nM
22 | CC1c2cnc(-c3ncccn3)nc2CCN1c1cc(N2CC(C#N)C2)cc(F)n1 (stereo not shown) [Example 144, 1-[2-Fluoro-6-(5-methyl-2-pyrimidin-2-yl-7,8-dihydro-5H-pyrido[4,3-d]pyrimidin-6-yl)-4-pyridyl]azetidine-3-carbonitrile] | 28 nM
23 | CC1c2cnc(-c3ncccn3)nc2CCN1c1cc(N2CCS(=O)(=O)CC2)cc(F)n1 (stereo not shown) [Example 146, 4-[2-Fluoro-6-(5-methyl-2-pyrimidin-2-yl-7,8-dihydro-5H-pyrido[4,3-d]pyrimidin-6-yl)-4-pyridyl]-1,4-thiazinane1,1-dioxide] | 38 nM
24 | CC1c2cnc(-c3ccccn3)nc2CCN1c1cc(F)cc(N2CCC(O)C2)n1 (stereo not shown) [Example 59, 1-[4-fluoro-6-[5-methyl-2-(2-pyridyl)-7,8-dihydro-5H-pyrido[4,3-d]pyrimidin-6-yl]-2-pyridyl]pyrrolidin-3-ol] | 26 nM
25 | CC1c2cnc(-c3ncccn3)nc2CCN1c1cc(F)cc(N2CCOC(C(=O)O)C2)n1 (stereo not shown) [Example 27, 4-[4-fluoro-6-(5-methyl-2-pyrimidin-2-yl-7,8-dihydro-5H-pyrido[4,3-d]pyrimidin-6-yl)-2-pyridyl]morpholine-2-carboxylic acid] | 3760 nM
26 | CC1c2cnc(-c3ccccn3)nc2CCN1c1cc(F)cc(N2CCC(C(=O)O)C2)n1 (stereo not shown) [Example 67, 1-[4-fluoro-6-[5-methyl-2-(2-pyridyl)-7,8-dihydro-5H-pyrido[4,3-d]pyrimidin-6-yl]-2-pyridyl]pyrrolidine-3-carboxylic acid] | 532 nM
27 | CC1c2cnc(-c3ccccn3)nc2CCN1c1cc(N2CCC(C(N)=O)C2)cc(F)n1 (stereo not shown) [Example 62, 1-[2-fluoro-6-[5-methyl-2-(2-pyridyl)-7,8-dihydro-5H-pyrido[4,3-d]pyrimidin-6-yl]-4-pyridyl]pyrrolidine-3-carboxamide] | 35 nM
28 | CC1c2cnc(-c3ncccn3)nc2CCN1c1cc(F)cc(N2CCN(CC(=O)O)CC2)n1 (stereo not shown) [Example 95, 2-[4-[4-fluoro-6-(5-methyl-2-pyrimidin-2-yl-7,8-dihydro-5H-pyrido[4,3-d]pyrimidin-6-yl)-2-pyridyl]piperazin-1-yl]acetic acid] | 3780 nM
